For experiment [1], the target named is T1, Human PDGFRα, cytoplasmic domain (GST-PDGFRα) (Homo sapiens, UniProt P16234).
T1 construct: made in house
As to the kind of experiment: Human PDGFRα biochemical inhibition assay (off-chip Mobility Shift Assay).

The target in experiment [2] is T2, Human PDGFRβ, cytoplasmic domain (GST-PDGFRβ) (Homo sapiens, UniProt P09619).
T2 construct: made in house
As to the kind of experiment: Human PDGFRβ biochemical inhibition assay (off-chip Mobility Shift Assay). In a few lines: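 GST-tagged cytoplasmic domain (aa 557-1106) from baculovirus was incubated 1 h at room temperature with compound, CSKtide, ATP at Km and Mg²⁺ in HEPES buffer, pH 7.5. Phosphorylated and unphosphorylated peptide were separated by off-chip mobility shift, and the product ratio P/(P+S) gave percent inhibition.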

Bounds are passed on as bounds.

T1 sequence (P16234 550-1089 T674I): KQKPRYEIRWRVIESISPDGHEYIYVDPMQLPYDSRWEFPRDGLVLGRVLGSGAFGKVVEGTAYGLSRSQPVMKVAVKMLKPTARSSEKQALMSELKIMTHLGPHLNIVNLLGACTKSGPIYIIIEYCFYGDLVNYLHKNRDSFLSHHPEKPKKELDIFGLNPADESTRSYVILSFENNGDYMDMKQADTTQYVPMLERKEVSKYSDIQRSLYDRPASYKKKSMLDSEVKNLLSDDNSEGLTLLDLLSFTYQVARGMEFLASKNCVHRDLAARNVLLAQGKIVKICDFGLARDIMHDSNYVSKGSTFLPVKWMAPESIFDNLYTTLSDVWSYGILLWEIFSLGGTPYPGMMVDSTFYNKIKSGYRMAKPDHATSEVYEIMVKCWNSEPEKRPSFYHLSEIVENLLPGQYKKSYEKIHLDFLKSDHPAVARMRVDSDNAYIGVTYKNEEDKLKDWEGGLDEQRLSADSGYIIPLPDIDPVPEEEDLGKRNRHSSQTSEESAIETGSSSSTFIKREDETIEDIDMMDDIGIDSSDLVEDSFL
T2 sequence (P09619 with tags, fused parts or gaps): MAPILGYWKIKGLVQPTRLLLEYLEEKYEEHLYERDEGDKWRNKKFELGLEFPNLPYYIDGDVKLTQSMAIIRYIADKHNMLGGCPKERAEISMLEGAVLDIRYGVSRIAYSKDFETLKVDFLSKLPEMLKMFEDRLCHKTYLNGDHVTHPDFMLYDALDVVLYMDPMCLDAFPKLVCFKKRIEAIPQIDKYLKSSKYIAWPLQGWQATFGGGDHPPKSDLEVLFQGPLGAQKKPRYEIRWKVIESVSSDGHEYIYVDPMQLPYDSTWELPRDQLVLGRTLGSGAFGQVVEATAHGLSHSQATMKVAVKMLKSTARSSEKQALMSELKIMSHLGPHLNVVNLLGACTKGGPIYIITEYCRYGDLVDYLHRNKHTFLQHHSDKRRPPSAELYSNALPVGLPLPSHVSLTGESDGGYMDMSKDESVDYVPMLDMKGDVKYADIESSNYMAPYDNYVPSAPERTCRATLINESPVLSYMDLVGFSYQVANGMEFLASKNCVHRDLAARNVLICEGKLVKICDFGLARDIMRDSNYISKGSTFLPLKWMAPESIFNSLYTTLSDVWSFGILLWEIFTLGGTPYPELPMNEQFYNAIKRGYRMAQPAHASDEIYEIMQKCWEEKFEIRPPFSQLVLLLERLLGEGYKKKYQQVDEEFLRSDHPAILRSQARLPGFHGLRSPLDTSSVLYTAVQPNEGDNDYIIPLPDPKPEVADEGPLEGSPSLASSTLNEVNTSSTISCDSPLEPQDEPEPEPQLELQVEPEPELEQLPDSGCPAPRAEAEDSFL

As for `CCn1cc2ncc(N[C@@H](C)c3cc(NC(=O)c4ccc(CN5CCN(C)CC5)c(Cl)c4)ccc3F)nc2n1` [Compound 429, (S)-3-chloro-N-(3-(1-((2-ethyl-2H-pyrazolo[3,4-b]pyrazin-6-yl)amino)ethyl)-4-fluorophenyl)-4-((4-methylpiperazin-1-yl)methyl)benzamide], the IC50 in experiment [1] and in experiment [2] was < 300 nM throughout.

Consider `CCn1cc2ncc(N[C@@H](C)c3cc(NC(=O)c4ccc(OC5CCN(C)CC5)c(Cl)c4)ccc3F)nc2n1` [Compound 430, (S)-3-chloro-N-(3-(1-((2-ethyl-2H-pyrazolo[3,4-b]pyrazin-6-yl)amino)ethyl)-4-fluorophenyl)-4-((1-methylpiperidin-4-yl)oxy)benzamide], for which the IC50 in experiment [1] and in experiment [2] was < 300 nM in each case.

On to `CCn1cc2ncc(N[C@@H](C)c3cc(NC(=O)c4ccc(OC5CCN(C)CC5)c(C(F)(F)F)c4)ccc3F)nc2n1` [Compound 431, (S)-N-(3-(1-((2-ethyl-2H-pyrazolo[3,4-b]pyrazin-6-yl)amino)ethyl)-4-fluorophenyl)-4-((1-methylpiperidin-4-yl)oxy)-3-(trifluoromethyl)benzamide], for which the IC50 in experiment [1] and in experiment [2] was < 300 nM throughout.

For the compound `CCn1cc2ncc(N[C@@H](C)c3cc(NC(=O)c4cnc(N5CCN(C)CC5)c(C)c4)ccc3F)nc2n1` [Compound 432, (S)-N-(3-(1-((2-ethyl-2H-pyrazolo[3,4-b]pyrazin-6-yl)amino)ethyl)-4-fluorophenyl)-5-methyl-6-(4-methylpiperazin-1-yl)nicotinamide], the concentration for half-maximal inhibition (IC50) in experiment [1] and in experiment [2] was < 300 nM each time.

In the case of `CCn1cc2ncc(N[C@@H](C)c3cc(NC(=O)c4ccc(N5CCN(C)CC5)c(C(F)(F)F)c4)ccc3F)nc2n1` [Compound 433, (S)-N-(3-(1-((2-ethyl-2H-pyrazolo[3,4-b]pyrazin-6-yl)amino)ethyl)-4-fluorophenyl)-4-(4-methylpiperazin-1-yl)-3-(trifluoromethyl)benzamide], the IC50 in experiment [1] and in experiment [2] was < 300 nM in each case.

With `Cc1cncc(C(=O)Nc2cccc([C@H](C)Nc3cnc4cn(-c5ccccc5)nc4n3)c2)c1` [Compound 434, (S)-5-methyl-N-(3-(1-((2-phenyl-2H-pyrazolo[3,4-b]pyrazin-6-yl)amino)ethyl)phenyl)nicotinamide], the IC50 in experiment [1] and in experiment [2] was < 300 nM in each case.

Take `CCn1cc2ncc(N[C@@H](C)c3cccc(NC(=O)c4ccc(Cn5ccnc5)c(C)c4)c3)nc2n1` [Compound 435, (S)-4-((1H-imidazol-1-yl)methyl)-N-(3-(1-((2-ethyl-2H-pyrazolo[3,4-b]pyrazin-6-yl)amino)ethyl)phenyl)-3-methylbenzamide]: the half-inhibitory concentration (IC50) in experiment [1] and in experiment [2] was < 300 nM in each case.

In the case of `CCn1cc2ncc(N[C@@H](C)c3cccc(NC(=O)c4ccc(N5CCN(C)CC5)c(C(F)(F)F)c4)c3)nc2n1` [Compound 436, (S)-N-(3-(1-((2-ethyl-2H-pyrazolo[3,4-b]pyrazin-6-yl)amino)ethyl)phenyl)-4-(4-methylpiperazin-1-yl)-3-(trifluoromethyl)benzamide], the IC50 in experiment [1] and in experiment [2] was < 300 nM each time.

In the case of `CCn1cc2ncc(N[C@@H](C)c3cccc(NC(=O)c4ccc(OC(F)(F)F)c(Cl)c4)c3)nc2n1` [Compound 437, (S)-3-chloro-N-(3-(1-((2-ethyl-2H-pyrazolo[3,4-b]pyrazin-6-yl)amino)ethyl)phenyl)-4-(trifluoromethoxy)benzamide], the IC50 in experiment [1] and in experiment [2] was < 300 nM in each case.

For the compound `CCn1cc2ncc(N[C@@H](C)c3cccc(NC(=O)c4ccc(C(F)(F)F)c(Cl)c4)c3)nc2n1` [Compound 438, (S)-3-chloro-N-(3-(1-((2-ethyl-2H-pyrazolo[3,4-b]pyrazin-6-yl)amino)ethyl)phenyl)-4-(trifluoromethyl)benzamide], the IC50 in experiment [1] and in experiment [2] was < 300 nM throughout.

On to `CCn1cc2ncc(N[C@@H](C)c3cccc(NC(=O)c4ccc(C(F)(F)F)c(C)c4)c3)nc2n1` [Compound 439, (S)-N-(3-(1-((2-ethyl-2H-pyrazolo[3,4-b]pyrazin-6-yl)amino)ethyl)phenyl)-3-methyl-4-(trifluoromethyl)benzamide], for which the half-inhibitory concentration (IC50) in experiment [1] and in experiment [2] was < 300 nM in each case.

On to `CCn1cc2ncc(N[C@@H](C)c3cccc(NC(=O)c4ccc(C(F)(F)F)c(OC)c4)c3)nc2n1` [Compound 440, (S)-N-(3-(1-((2-ethyl-2H-pyrazolo[3,4-b]pyrazin-6-yl)amino)ethyl)phenyl)-3-methoxy-4-(trifluoromethyl) benzamide], for which the concentration for half-maximal inhibition (IC50) in experiment [1] and in experiment [2] was < 300 nM each time.

`CCn1cc2ncc(N[C@@H](C)c3cccc(NC(=O)c4ccc(N5CCCC5)c(F)c4)c3)nc2n1` [Compound 441, (S)-N-(3-(1-((2-ethyl-2H-pyrazolo[3,4-b]pyrazin-6-yl)amino)ethyl)phenyl)-3-fluoro-4-(pyrrolidin-1-yl)benzamide]: the IC50 in experiment [1] and in experiment [2] was < 300 nM throughout.

With `CCn1cc2ncc(N[C@@H](C)c3cccc(NC(=O)c4ccc5c(c4)OC(F)(F)O5)c3)nc2n1` [Compound 442, (S)-N-(3-(1-((2-ethyl-2H-pyrazolo[3,4-b]pyrazin-6-yl)amino)ethyl)phenyl)-2,2-difluorobenzo[d][1,3]dioxole-5-carboxamide], the IC50 in experiment [1] and in experiment [2] was < 300 nM each time.

Consider `CCn1cc2ncc(N[C@@H](C)c3cc(NC(=O)c4ccc(CN5CCCC5)c(C(F)(F)F)c4)ccc3F)nc2n1` [Compound 443, (S)-N-(3-(1-((2-ethyl-2H-pyrazolo[3,4-b]pyrazin-6-yl)amino)ethyl)-4-fluorophenyl)-4-(pyrrolidin-1-ylmethyl)-3-(trifluoromethyl)benzamide], for which the IC50 in experiment [1] and in experiment [2] was < 300 nM each time.

As for `CCn1cc2ncc(N[C@@H](C)c3cc(NC(=O)c4ccc(CN5CCN(C)CC5)c(C(F)(F)F)c4)ccc3F)nc2n1` [Compound 444, (S)-N-(3-(1-((2-ethyl-2H-pyrazolo[3,4-b]pyrazin-6-yl)amino)ethyl)-4-fluorophenyl)-4-((4-methylpiperazin-1-yl)methyl)-3-(trifluoromethyl) benzamide], the concentration for half-maximal inhibition (IC50) in experiment [1] and in experiment [2] was < 300 nM throughout.

For `CCn1cc2ncc(N[C@@H](C)c3cc(NC(=O)c4cnc(N5CCN(C)CC5)c(C(F)(F)F)c4)ccc3F)nc2n1` [Compound 445, (S)-N-(3-(1-((2-ethyl-2H-pyrazolo[3,4-b]pyrazin-6-yl)amino)ethyl)-4-fluorophenyl)-6-(4-methylpiperazin-1-yl)-5-(trifluoromethyl)nicotinamide], the concentration for half-maximal inhibition (IC50) in experiment [1] and in experiment [2] was < 300 nM in each case.

With `CCn1cc2ncc(N[C@@H](C)c3cc(NC(=O)c4ccc(CN5CCOCC5)c(C)c4)ccc3F)nc2n1` [Compound 446, (S)-N-(3-(1-((2-ethyl-2H-pyrazolo[3,4-b]pyrazin-6-yl)amino)ethyl)-4-fluorophenyl)-3-methyl-4-(morpholinomethyl) benzamide], the IC50 in experiment [1] and in experiment [2] was < 300 nM throughout.

For the compound `CCn1cc2ncc(N[C@@H](C)c3cc(NC(=O)c4ccc(OC5CCN(C)CC5)c(C)c4)ccc3F)nc2n1` [Compound 447, (S)-N-(3-(1-((2-ethyl-2H-pyrazolo[3,4-b]pyrazin-6-yl)amino)ethyl)-4-fluorophenyl)-3-methyl-4-((1-methylpiperidin-4-yl)oxy)benzamide], the IC50 in experiment [1] and in experiment [2] was < 300 nM each time.

As for `CCn1cc2ncc(N[C@@H](C)c3cccc(NC(=O)c4ccc5c(c4)CN(C)C5)c3)nc2n1` [Compound 449, (S)-N-(3-(1-((2-ethyl-2H-pyrazolo[3,4-b]pyrazin-6-yl)amino)ethyl)phenyl)-2-methylisoindoline-5-carboxamide], the IC50 was 300 to 1000 nM in experiment [1] and ≥ 1000 nM in experiment [2].

Regarding `CCn1cc2ncc(N[C@@H](C)c3cccc(NC(=O)c4ccc(OC(F)F)c(Cl)c4)c3)nc2n1` [Compound 450, (S)-3-chloro-4-(difluoromethoxy)-N-(3-(1-((2-ethyl-2H-pyrazolo[3,4-b]pyrazin-6-yl)amino)ethyl)phenyl)benzamide], the IC50 in experiment [1] and in experiment [2] was < 300 nM throughout.

On to `CCn1cc2ncc(N[C@@H](C)c3cccc(NC(=O)Cc4ccccc4F)c3)nc2n1` [Compound 451, (S)-N-(3-(1-((2-ethyl-2H-pyrazolo[3,4-b]pyrazin-6-yl)amino)ethyl)phenyl)-2-(2-fluorophenyl)acetamide], for which the IC50 in experiment [1] is < 300 nM; in experiment [2] it was 300 to 1000 nM.

`CCn1cc2ncc(N[C@@H](C)c3cccc(NC(=O)c4ccc(OC(F)(F)F)c(C)c4)c3)nc2n1` [Compound 452, (S)-N-(3-(1-((2-ethyl-2H-pyrazolo[3,4-b]pyrazin-6-yl)amino)ethyl)phenyl)-3-methyl-4-(trifluoromethoxy)benzamide]: the concentration for half-maximal inhibition (IC50) in experiment [1] and in experiment [2] was < 300 nM in each case.

As for `CCn1cc2ncc(N[C@@H](C)c3cccc(NC(=O)c4ccc(C(F)(F)F)cc4)c3)nc2n1` [Compound 453, (S)-N-(3-(1-((2-ethyl-2H-pyrazolo[3,4-b]pyrazin-6-yl)amino)ethyl)phenyl)-4-(trifluoromethyl)benzamide], the IC50 in experiment [1] and in experiment [2] was < 300 nM each time.

For `CCn1cc2ncc(N[C@@H](C)c3cccc(NC(=O)Cc4cccc(F)c4F)c3)nc2n1` [Compound 454, (S)-2-(2,3-difluorophenyl)-N-(3-(1-((2-ethyl-2H-pyrazolo[3,4-b]pyrazin-6-yl)amino)ethyl)phenyl)acetamide], the IC50 was < 300 nM in experiment [1] and 300 to 1000 nM in experiment [2].

As for `CCn1cc2ncc(N[C@@H](C)c3cc(NC(=O)c4ccc(C(F)(F)F)nc4)ccc3C)nc2n1` [Compound 455, (S)-N-(3-(1-((2-ethyl-2H-pyrazolo[3,4-b]pyrazin-6-yl)amino)ethyl)-4-methylphenyl)-6-(trifluoromethyl)nicotinamide], the IC50 in experiment [1] and in experiment [2] was < 300 nM each time.

The record behind these values is patent US20230102554A1 (GB002, INC., priority 2019, published 2023).
